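Cultured in 96-well plates, cells were exposed to test compound for 48 hours across five concentrations. The concentration for 50% growth inhibition is given as GI50. TGI: concentration producing complete growth inhibition.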
How the values were obtained:
Experiment in all cases: growth of human tumour cells (NCI), 48 h
NCI-H460 lung = tested on: NCI-H460 lung
MALME-3M melanoma = tested on: MALME-3M melanoma
HCT-15 colon = tested on: HCT-15 colon
CCRF-CEM leukemia = tested on: CCRF-CEM leukemia
EKVX NSCLC = tested on: EKVX NSCLC
KM12 colon = tested on: KM12 colon
SF-295 CNS = tested on: SF-295 CNS
HCC-2998 colon = tested on: HCC-2998 colon

Row | SMILES | GI50 (NCI-H460 lung) [µM] | TGI (NCI-H460 lung) [µM] | GI50 (MALME-3M melanoma) [µM] | TGI (MALME-3M melanoma) [µM] | GI50 (HCT-15 colon) [µM] | TGI (HCT-15 colon) [µM] | GI50 (CCRF-CEM leukemia) [µM] | TGI (CCRF-CEM leukemia) [µM] | GI50 (EKVX NSCLC) [µM] | TGI (EKVX NSCLC) [µM] | GI50 (KM12 colon) [µM] | TGI (KM12 colon) [µM] | GI50 (SF-295 CNS) [µM] | TGI (SF-295 CNS) [µM] | GI50 (HCC-2998 colon) [µM] | TGI (HCC-2998 colon) [µM]
1 | C=CCc1cc(Nc2c3ccc(Cl)cc3nc3ccc(OC)cc23)cc(CN(CC)CC)c1O | 0.525 | 2.69 | 1.87 | 6.78 | 2.59 | 12 | 0.8 | 4.26 | 0.661 | 11.1 | 2.08 | 12.3 | 0.938 | 5.17 | 2.71 | 16.6
2 | N/C(=N\OC(=O)c1ccccc1)C(Cc1ccccc1)C(=O)NOC(=O)c1ccccc1 (configuration not stated) | 1.76 | 3.71 | 3.47 | 14.8 | 2.21 | 10.5 | 2.18 | 6.07 | 2.23 | 6.52 | 2.19 | 5.28 | 1.38 | 3.1 | 5.4 | 19.7
3 | N#CCCNc1nonc1-c1nc2ccccc2n1CC(=O)c1ccc(NC(=O)[C@@H](N)CCCCN)cc1 | 0.0344 | > 100 | > 100 | > 100 | 0.0356 | > 100 | 0.0368 | > 100 | – | – | 0.0279 | – | 0.016 | > 100 | 0.0308 | > 92.2
4 | CCOC(=O)c1cc2c(cc1Cl)SC(=Nc1ccccc1)N(S(=O)(=O)c1ccc(Br)s1)S2(=O)=O | 19.4 | 51.1 | – | – | 13.5 | 27.1 | 4.51 | 18.8 | 15.5 | 32.3 | 17.6 | 33.3 | 21.5 | 46.4 | 16.7 | 31.6
5 | Clc1ccc(C2ON=C(c3ccccc3)N2C23CC4CC(CC(C4)C2)C3)cc1 (configuration not stated) | – | > 10 | – | > 10 | – | > 10 | – | > 10 | – | > 10 | – | > 10 | – | > 10 | – | > 10
6 | O=C(O)c1ccccc1NC(=S)c1ccccc1 | – | > 100 | – | 65.9 | – | > 100 | – | > 100 | – | > 100 | – | > 100 | – | > 100 | – | 0.0159
7 | CC(=O)O[C@@H]1C[C@@]2(C)[C@@H]3CC=C4[C@@H](C[C@H](O)C(=O)C4(C)C)[C@]3(C)C(=O)C[C@]2(C)[C@H]1[C@@](C)(O)C(=O)/C=C/C(C)(C)OC(C)=O | – | 16.3 | – | – | – | 12.3 | – | > 69.2 | – | 26 | – | 39.2 | – | 34.1 | – | 16.5
8 | COc1cc(-c2nn(-c3cccc(NC(=O)CCN4CCN(Cc5ccccc5)CC4)c3)cc2-c2ccncc2)ccc1Cl | 0.38 | 1.46 | 1.01 | 2.55 | 0.635 | 3.72 | 0.691 | > 100 | 1.6 | 17.5 | 0.583 | 3.86 | 0.482 | 1.95 | 1.68 | 3.82
9 | CC(C)C[C@H](NC(=O)CCn1ccc2ccccc2c1=O)B(O)O | 13 | 56.2 | 2.58 | 9.89 | 9.57 | > 100 | 2.02 | 25.4 | – | – | 7.51 | 29.8 | 3.77 | 19.6 | 6.08 | 21.3

— PubChem BioAssay (NCI)
